Assay [1] addresses T1, PHD2 enzyme (residues 181-417) (Homo sapiens, UniProt Q9GZT9).
T1 construct: The IC50 values for the PHD2 enzyme (residues 181-417) were determined
The experiment in a line: Inhibition of PHD2 Enzyme (LC/MS detection of hydroxylated peptide). Type of assay: biochemical. The following applies: 5 nM enzyme, 1 μM biotin-labeled peptide, 2 μM 2-oxoglutarate, 60 min pre-incubation, pH 7.3; -log(IC50), IC50 molar; read-out: Inhibition of PHD2 (pIC50) (converted). How it is done: The IC50 values for the PHD2 enzyme (residues 181-417) were determined by mixing increasing amounts of an inhibitor with a fixed amount of enzyme (5 nM, final concentration) and Biotin-labeled peptide (Biotin-Asp-Leu-Glu-Met-Leu-Ala-Pro-Tyr-Ile-Pro-Met-Asp-Asp-Asp-Phe-Gln-Leu, 1 μM final concentration) and 2-oxyglutarate (2 μM final concentration) in 50 mM HEPES, 50 mM KCl, 0.5 mM TCEP, 2 μM FeCl2, 0.1 mg/mL BSA, at pH 7.3. The reaction was conducted by pre-incubating the enzyme in the presence of the inhibitor for 60 minutes at room temperature. The activity of the free enzyme was measured by adding the peptide, the 2-oxoglutarate, and ascorbic acid (1 mM final concentration). The enzymatic activity was quenched after 60 minutes by adding an excess of a tight binding inhibitor to the assay mixture. The amount of product released was measured by using a LC/MS system (Agilent HPLC with Applied Biosystems API3000 Mass Spectrometer). Data were analyzed using the classical isotherm equation for the determination of IC50 values and are reported in Table 1, below, as pIC50, i.e., −log(IC50), where IC50 is molar concentration of the test compound at 50% inhibition.
(§1) Table 1 lists biological data for some of the compounds shown in the examples, where larger pIC50 and pEC50 values represent higher potency or activity, respectively. The IC50 data (reported in Table 1 as pIC50) were obtained using the enzyme-based assay described in the specification under the heading “Inhibition of PHD2 Enzyme.” The EC50 data (reported in Table 1 as pEC50) were obtained using the cell-based assay described in the specification under the heading “Cell-based HIF-α Stabilization Assay.”

The subject of assay [2] is HIF1a protein content in H9c2 rat cardiomyocytes. The experiment in a line: Cell-based HIF-α Stabilization Assay (HIF1a ELISA). The note with it: H9c2 cells, 24 hours compound incubation, concentration giving 50% of desferrioxamine maximum response, -log(EC50), EC50 molar, read-out: Stabilization of HIF-α (pEC50) (converted). How it is done:
H9c2 rat cardiomyocytes (ATCC) were seeded in 96-well tissue culture microplates and cultured for 24 hours prior to addition of compounds (11 point range of serial dilutions) or DMSO vehicle. After 24 hours of compound incubation, whole cell extracts were prepared by lysing cells in cell extraction buffer containing protease and phosphatase inhibitors (Meso-Scale Discovery). HIF1a protein content was assessed by ELISA (Meso-Scale Discovery) and expressed as % relative to the maximum response obtained from the positive control, desferrioxamine (Sigma-Aldrich). EC50 for each compound was obtained by curve-fitting using XLfit4 MicroSoft Excel curve-fitting software to calculate the compound concentration that results in 50% of the desferrioxamine maximum response.
as §1

T1 sequence (Q9GZT9 181-417): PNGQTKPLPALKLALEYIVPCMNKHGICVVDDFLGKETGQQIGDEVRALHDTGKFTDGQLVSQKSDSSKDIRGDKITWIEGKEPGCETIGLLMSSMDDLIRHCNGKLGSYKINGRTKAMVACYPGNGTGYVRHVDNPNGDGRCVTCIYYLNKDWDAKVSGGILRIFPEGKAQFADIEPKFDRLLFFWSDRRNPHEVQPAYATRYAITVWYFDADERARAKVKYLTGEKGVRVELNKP

Regarding `N#Cc1cnc(C(=O)N[C@@H]2CCc3cc(C#N)ccc32)c(O)c1` [Example 34, (R)-5-cyano-N-(5-cyano-2,3-dihydro-1H-inden-1-yl)-3-hydroxypicolinamide], the IC50 in assay [1] was 39.8 nM. Also, in assay [2], the EC50 was 12600 nM.
The like results for `Cc1cc(C#N)ccc1CNC(=O)c1ncc(F)cc1O` [Example 35, N-(4-cyano-2-methylbenzyl)-5-fluoro-3-hydroxypicolinamide] were, in that order, 20 nM and 25100 nM.
The matching figures for `Cc1cc(C#N)ccc1CNC(=O)c1ncc(Cl)cc1O` [Example 36, 5-chloro-N-(4-cyano-2-methylbenzyl)-3-hydroxypicolinamide]: 39.8 nM and 25100 nM.
`COc1cnc(C(=O)NCc2ccc(C#N)cc2C)c(O)c1` [Example 38, N-(4-cyano-2-methylbenzyl)-3-hydroxy-5-methoxypicolinamide]: the IC50 in assay [1] was 10 nM. Also, the EC50 in assay [2] is 7940 nM.
The matching figures for `CC(NC(=O)c1ncccc1O)c1ccc(C#N)cc1` (stereo not shown) [Example 39, N-(1-(4-cyanophenyl)ethyl)-3-hydroxypicolinamide]: 1580 nM and 50100 nM.
For `COCCCNc1cnc(C(=O)NCc2c(C)cc(C#N)cc2C)c(O)c1` [Example 40, N-(4-cyano-2,6-dimethylbenzyl)-3-hydroxy-5-((3-methoxypropyl)amino)picolinamide], in assay [1], the IC50 is 31.6 nM. Further, the EC50 in assay [2] was 2510 nM.
In the case of `CCN1CCN(c2cnc(C(=O)NCc3c(C)cc(C#N)cc3C)c(O)c2)CC1` [Example 41, N-(4-cyano-2,6-dimethylbenzyl)-5-(4-ethylpiperazin-1-yl)-3-hydroxypicolinamide], in assay [1], the IC50 is 79.4 nM. In addition, the EC50 in assay [2] was 6310 nM.
Turning to `Cc1cc(C#N)cc(C)c1CNC(=O)c1ncc(N2CCN(CC(F)F)CC2)cc1O` [Example 42, N-(4-cyano-2,6-dimethylbenzyl)-5-(4-(2,2-difluoroethyl)piperazin-1-yl)-3-hydroxypicolinamide], the IC50 in assay [1] is 39.8 nM. Besides, in assay [2], the EC50 is 3980 nM.

The record behind these values is patent US20200277262A1, “N-(CYANO-SUBSTITUTED BENZYL OR PYRIDINYLMETHYL)-3-HYDROXYPICOLINAMIDE DERIVATIVES” (Takeda Pharmaceutical Company Limited, priority 2017, published 2020).
